# Test results reported in publication PMC5384220 (Nature Communications, 2017).
# “Also recorded” adds a separate entry of the source. Where a SMILES comes first, the peptide text is derived from it. Bridges are numbered along the chain shown (N, C = ends). Where no end group is shown, it is not given here. [ ]: non-standard residue; d: D form. Lys(Me3) = C[N+](C)(C)CCCC[C@H](N)C(=O)O; Phe(4-F) = N[C@@H](Cc1ccc(F)cc1)C(=O)O; NMeV = CN[C@H](C(=O)O)C(C)C; NMeC = CN[C@@H](CS)C(=O)O
# Key:
# KDM4A [1] = molecular target: T1, KDM4A (Homo sapiens, UniProt O75164); assay: AlphaScreen demethylase activity assay, KDM4A; format: biochemical; details: for IC50: KDM4A 1-359
# T1 construct: KDM4A 1-359 E.coli; Hexa-His (N); made in house; host or cells: E. coli
# T1 sequence (O75164 1-359): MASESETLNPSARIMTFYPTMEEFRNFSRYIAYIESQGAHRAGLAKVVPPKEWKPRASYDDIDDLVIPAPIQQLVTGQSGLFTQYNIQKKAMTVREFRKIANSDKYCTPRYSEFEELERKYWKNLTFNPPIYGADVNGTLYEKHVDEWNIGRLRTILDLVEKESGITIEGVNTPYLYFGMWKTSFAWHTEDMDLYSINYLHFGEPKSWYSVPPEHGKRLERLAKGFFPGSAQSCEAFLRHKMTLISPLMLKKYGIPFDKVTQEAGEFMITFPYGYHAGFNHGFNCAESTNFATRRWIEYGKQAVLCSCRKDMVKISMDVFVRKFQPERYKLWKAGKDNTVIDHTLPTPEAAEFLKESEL
# Experimental: IC50 values for KDM2–6 were measured using an AlphaScreen assay as described. The appropriate KDM (5 μl) was pre-incubated with an inhibitor (0.1 μl in DMSO) or DMSO for 15 min before the addition of 5 μl mixture of biotinylated peptide substrates, 2OG, ferrous ammonium sulfate (1–10 μM final) and ascorbate (100 μM final) to initiate the demethylation reaction. The reaction was quenched with 5 μl of 30 mM EDTA at predetermined reaction times for each enzyme (initial rate). Demethylated product was detected by addition of 5 μl of AlphaScreen donor and acceptor beads (AlphaScreen General IgG Detection Kit, 0.02 mg ml^−1 final each) pre-incubated with antibody. The plates were read after 1 h incubation in a BMG Labtech Pherastar FS plate reader. Data were normalized to a no enzyme control and IC50 values were calculated using nonlinear regression curve fits using GraphPad Prism. Assay buffer (50 mM HEPES pH 7.5, BSA (0.1% w/v) and Tween-20 (0.01% v/v)) was used throughout, except for dilution of stock ferrous ammonium sulfate solutions where water was used. The enzyme, substrate and antibody concentrations used are described in Supplementary Table 3. A fluorescence-based LSD1 inhibitor screening assay kit (Cayman, 700120) was used for KDM1/LSD1 assay. Assays for prolyl hydroxylase domain 2 and factor inhibiting HIF using matrix-assisted laser desorption/ionization–time of flight MS were performed as previously described. Prism 5.0 (GraphPad) was used to generate and to fit dose–response curves. IC50 values were determined by plotting percentage inhibition versus compound concentration relative to positive (vehicle) and negative (no enzyme) controls, using normalized dose–response (variable slope) fit. The reported values are the mean of multiple experiments (n≥3). The formaldehyde dehydrogenase coupled KDM assay was used to determine the mode of inhibition, using 0.5 μM His-KDM4A1–359. Prism 5.0 (GraphPad) was used to fit in mix-mode inhibition, to determine the kinetic parameters. Binding constants for CPs and H3(1–15)K9me3 were measured using biolayer interferometry (OctetRed 384, ForteBio) in buffer (50 mM HEPES (pH 7.5), 150 mM NaCl, 10 μM ammonium iron(II) sulphate). His-KDM4A1–359-Bio (70 nM) was immobilized onto super streptavidin biosensor and subjected to different peptide concentrations in buffer. Data analysis was performed using ForteBio Data Aalysis (v6.4).
# Construct Expression [E] / nM [2OG] / µM [Fe(II)] / µM Peptide / nM Peptide sequence Antibody Source […]
# Supplementary Table 3. AlphaScreen assay parameters for 2OG oxygenases used for this study. The table was dapted from 10. Assays were performed at 2OG concentration near the 2OG Km values determined experimentally.11 All enzymes were expressed and purified as described.10-12
# KDM4C = molecular target: T2, KDM4C (Homo sapiens, UniProt Q9H3R0); assay: AlphaScreen demethylase activity assay, KDM4C; format: biochemical
# T2 construct: KDM4C 1-366 E.coli; made in house; host or cells: E. coli
# T2 sequence (Q9H3R0 1-366): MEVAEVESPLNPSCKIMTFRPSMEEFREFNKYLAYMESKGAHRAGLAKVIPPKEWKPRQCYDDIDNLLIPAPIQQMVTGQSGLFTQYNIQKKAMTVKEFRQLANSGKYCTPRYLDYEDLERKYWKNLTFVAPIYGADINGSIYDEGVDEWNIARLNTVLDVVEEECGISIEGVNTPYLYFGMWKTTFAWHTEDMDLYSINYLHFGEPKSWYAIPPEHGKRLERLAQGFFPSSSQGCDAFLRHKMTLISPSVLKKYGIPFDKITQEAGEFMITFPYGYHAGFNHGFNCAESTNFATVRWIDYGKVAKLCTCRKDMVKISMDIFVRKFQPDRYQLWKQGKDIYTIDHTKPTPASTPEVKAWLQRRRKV
# Experimental: IC50 values for KDM2–6 were measured using an AlphaScreen assay as described. The appropriate KDM (5 μl) was pre-incubated with an inhibitor (0.1 μl in DMSO) or DMSO for 15 min before the addition of 5 μl mixture of biotinylated peptide substrates, 2OG, ferrous ammonium sulfate (1–10 μM final) and ascorbate (100 μM final) to initiate the demethylation reaction. The reaction was quenched with 5 μl of 30 mM EDTA at predetermined reaction times for each enzyme (initial rate). Demethylated product was detected by addition of 5 μl of AlphaScreen donor and acceptor beads (AlphaScreen General IgG Detection Kit, 0.02 mg ml^−1 final each) pre-incubated with antibody. The plates were read after 1 h incubation in a BMG Labtech Pherastar FS plate reader. Data were normalized to a no enzyme control and IC50 values were calculated using nonlinear regression curve fits using GraphPad Prism. […] A fluorescence-based LSD1 inhibitor screening assay kit (Cayman, 700120) was used for KDM1/LSD1 assay. […] IC50 values were determined by plotting percentage inhibition versus compound concentration relative to positive (vehicle) and negative (no enzyme) controls, using normalized dose–response (variable slope) fit. […] Binding constants for CPs and H3(1–15)K9me3 were measured using biolayer interferometry (OctetRed 384, ForteBio) in buffer (50 mM HEPES (pH 7.5), 150 mM NaCl, 10 μM ammonium iron(II) sulphate). […]
# KDM4A [2] = system: KDM4A; design: method as in earlier work; details: ref 4 (King et al., supplementary references); read-out: EC50 KDM4A inhibition in cells; cited from earlier work
# [3] = system: H3K9me3/H3K36me3 in HeLa cells; assay: Immunofluorescence of global histone methylation, 72 h dosing; format: cell-based; details: 72 h treatment
# From the text: Supplementary Figure 12. Immunofluorescence analysis of global histone methylation levels after 72hr dosing of cyclic peptides in HeLa cells. (a)-(c) Immunofluorescence analysis of HeLa cells dosed with cyclic peptides for 72 hrs. Maximum intensity projected images of 3D confocal z-stacks showing nuclei stained with […]
# DMSO and CP2 treated cells. Bar represents 50µm. Global H3K9me3 (d) and associated nuclei count for the […]
# staining, (h) global H3K4me3 and (i) global H3K27me3 staining. An increase in fluorescence intensity, […]
# over certain concentration ranges. Average +/- s.e.m (n > 100 cells) are shown except at concentrations of […]
# A generic 2OG oxygenase inhibitor 5-carboxy-8-
# Immunofluorescence (IF) assay […]
# with 0.5% FBS and 1% Pen-Strep. […]
# grade plate (Becton Dickinson) and left overnight to adhere. Cells were dosed with cyclic […]
# After 30min blocking (3% FBS in […]
# three times after each incubation. […]
# Image acquisition and analysis […]
# image immunostained cells in a 96-well plate configuration. For each well, the system […]
# The average intensity for each […]
# analysed using GraphPad Prism 5. […]
# FLAG-KDM4A in HeLa cells = assay: Immunofluorescence of H3K9me3 in HeLa cells overexpressing FLAG-KDM4A, 24 h dosing
# KDM4A1-359 = molecular target: T3, KDM4A1-359 (Homo sapiens, UniProt O75164); assay: MALDI-TOF MS demethylation of CP2 variants as substrates; format: biochemical; details: KDM4A 2 μM, peptide 10 μM, 2OG 100 μM, 2 h 37 °C
# T3 construct: Hexa-His (N); made in house
# T3 sequence (O75164 1-359): T1 sequence (O75164 1-359)
# Experimental: Figure 3 KDM4A can demethylate methylated lysine and arginine containing non-histone sequences. […] The reaction product was analysed using matrix-assisted laser desorption/ionization–time of flight MS. Reactions containing enzymes are in red, no enzyme peptide controls are in black.
# His-KDM4A1-359-Bio = molecular target: T4, His-KDM4A1-359-Bio (Homo sapiens, UniProt O75164); assay: Biolayer interferometry binding to KDM4A
# T4 construct: KDM4A protein (residues 1-359) was cloned into the pNIC-Bio3 plasmid, which incorporates a C-terminal AviTag; made in house; host or cells: E. coli BL21(DE3)Rosetta co-transfected with pCDF-BirA
# T4 sequence (O75164 1-359): T1 sequence (O75164 1-359)
compound,measurement,setting,value
CC[C@H](C)[C@@H]1NC(=O)CNC(=O)[C@H](CC(C)C)NC(=O)[C@H](Cc2c[nH]c3ccccc23)NC(=O)[C@H](Cc2ccc(O)cc2)NC(=O)[C@@H](Cc2ccc(O)cc2)NC(=O)CSC[C@@H](C(N)=O)NC(=O)[C@H](Cc2ccc(O)cc2)NC(=O)[C@H](CO)NC(=O)[C@H](CCCNC(=N)N)NC(=O)[C@@H]2CCCN2C(=O)[C@H]([C@@H](C)O)NC1=O [CP1] ({CH2CO}-[dY]YWLGITPRSYC-NH2; thioether N-12),IC50,KDM4A [1]; AlphaScreen,> 100 µM
CC(C)[C@H]1C(=O)N[C@@H](Cc2ccc(O)cc2)C(=O)N[C@@H](CC(N)=O)C(=O)N[C@@H]([C@@H](C)O)C(=O)N[C@@H](C)C(=O)N[C@@H](CO)C(=O)N[C@H](C)C(=O)N[C@@H](Cc2c[nH]c3ccccc23)C(=O)N[C@@H](CCCNC(=N)N)C(=O)N[C@@H](Cc2c[nH]c3ccccc23)C(=O)N[C@@H](Cc2ccc(F)cc2)C(=O)N2CCC[C@H]2C(=O)N(C)[C@H](C(N)=O)CSCC(=O)N[C@H](Cc2ccc(O)cc2)C(=O)N1C [CP2.3(R6A)] ({CH2CO}-[dY][NMeV]YNTAS[dA]WRW[Phe(4-F)]P[NMeC]-NH2; thioether N-14),IC50,KDM4C,> 10 µM
CC[C@H](C)[C@@H]1NC(=O)[C@H](C)NC(=O)[C@@H]2CCCN2C(=O)[C@H]([C@@H](C)O)NC(=O)[C@H](Cc2ccc(O)cc2)NC(=O)[C@H](Cc2ccccc2)NC(=O)[C@H](Cc2c[nH]c3ccccc23)NC(=O)[C@H](Cc2ccc(O)cc2)NC(=O)CSC[C@@H](C(N)=O)NC(=O)[C@H](Cc2c[nH]c3ccccc23)NC(=O)[C@H](CCCNC(=N)N)NC1=O [CP3] ({CH2CO}-YWFYTPAIRWC-NH2; thioether N-11),IC50,KDM4C,> 100 µM
same,IC50,KDM4A [1]; AlphaScreen,> 100 µM
DY(meV)YNTRSDAWRW(4FF)P(meC) [CP2.3],Inhibitor range with increases in nuclear H3K9me3/H3K36me3 staining,[3],10 to 20 µM
DY(meV)YNTRSDAWRWY(meT)(meC) [CP2.2],Inhibitor range with increases in nuclear H3K9me3/H3K36me3 staining,[3],10 to 20 µM
DYVYNTRSDAWRWYT(meC) [CP2.1],Inhibitor range with increases in nuclear H3K9me3/H3K36me3 staining,[3],10 to 20 µM
DYVYNTRSGWRWYTC [Linear CP2],KDM4A IC50 relative to CP2,KDM4A [1]; AlphaScreen,four fold higher
DYVYNTRSGWRWYTC-BRRRRRRRRR [CP2(polyR)],H3K9me3 levels in cells overexpressing FLAG-KDM4A (cellular KDM4A demethylase activity),FLAG-KDM4A in HeLa cells,Loss of H3K9me3 staining; also recorded: no inhibition of cellular KDM4A demethylase activity
DYVYNT[Lys(Me3)]SGWRWYTC [R6Kme3],Demethylation of the peptide by KDM4A (substrate),KDM4A1-359,efficiently demethylated
same,Demethylation of the peptide by KDM4A (substrate),KDM4A1-359; listed as CP2(R6Kme3),substrates of KDM4A
LYLKSRRSGLTWIPC [CP4],Intra-subfamily selectivity KDM4A-C over KDM4D-E,KDM4A [1]; ratio of IC50 values,> 100 fold
same,"Selectivity by IC50 for KDM4 over other JmjC-demethylase families, PHD2, FIH and KDM1A",KDM4A [1]; ratio of IC50 values,> 160 fold
same,KDM4A Binding kdiss,His-KDM4A1-359-Bio,0.000784 s⁻¹
same,KDM4A Binding kon,His-KDM4A1-359-Bio,21800 M⁻¹ s⁻¹
LYSKYTQSGVRWVC [CP5],"Selectivity by IC50 for KDM4 over other JmjC-demethylase families, PHD2, FIH and KDM1A",KDM4A [1]; ratio of IC50 values,> 160 fold
same,KDM4A Binding kdiss,His-KDM4A1-359-Bio,0.0107 s⁻¹
same,KDM4A Binding kon,His-KDM4A1-359-Bio,62000 M⁻¹ s⁻¹
"LYVYNT(Rme2a)SGWRWYTC (not fully specified (N-terminus, bridges)) [CP2(R6me2a)]",Demethylation of the peptide by KDM4A (substrate),KDM4A1-359,demethylate; also recorded: substrates of KDM4A
